This data set is described as follows: In-vivo evaluation: phytocannabinoid serum concentrations after oral administration. Further details: species or system mice (C57BL/6 J). As to conditions: male, C57BL/6J, mouse, mice, 5 mg CBD/kg, 90 min after dosing, average ± standard error. On the procedure:
Animal studies were performed in compliance with the Guide for the Care and Use of Laboratory Animals established by the National Institutes of Health. All procedures and protocols were approved by the Technion Administrative Panel of Laboratory Animal Care (#:IL_050-05-2018).
Subjects 10 adult male mice (C57BL/6 J; The Jackson Laboratory), weighing 20-30 gr were housed in standard laboratory conditions with controlled temperature, humidity, light/dark cycle, ad libitum access to water and regular diet. The experiment was performed at noon, during the light cycle.
CME tea was prepared by pouring 13.3 ml of hot di-ionized water (80° c) over 20 mg of dry SE particles, resulting in CME concentration of […]. The mixture was then genteelly stirred until complete dissolution was observed.
The control solution was prepared by dissolving CME in a solution of 1:1:18 EtOH: Cremophor: PBS. First, 8.5 mg of CME were dissolved in 0.5 ml of EtOH. After that 0.5 ml of Cremophor was added and the mixture was stirred for one hour. Finally, 9 ml of PBS were added, and the mixture was stirred for 30 minutes. Both CME tea and control solution concentrations were calculated to match a dose of 5 mg CBD/kg for a volume intake of 200 μl and an average mouse weight of 25 gr.
For both the control group (5 mice) and the experiment group (5 mice) a dose of 200 μl was orally administered via direct injection to the stomach.
The mice were sacrificed 1.5 hours after oral administration. Blood samples were immediately taken and stored for further examination.
A sample of 600 μl of an extraction solution containing 0.1% v/v acetic acid in a methanol: acetonitrile 1:1 mixture, spiked with 20 ng/ml deuterated internal standards (ISs) was added to 200 μl serum sample. Samples were than vortexed and centrifuged in order to enable protein and cell precipitation. 3 ml of 0.1% v/v acetic acid in water was then added to the supernatants and the sample was loaded onto Agela Cleanert C8 solid phase extraction (SPE) cartridges (500 mg of sorbent, 50 μm particle size). Elution of phytocannabinoids from the columns was done using 2 ml of 0.1% v/v acetic acid in methanol, followed by an evaporation and reconstituted in 100 μl ethanol.
Cannabinoid quantitation was performed as described by P. Berman et al. (Berman et al., 2018).
Phytocannabinoids serum concentrations were evaluated 90 min after oral administration to mice, as detailed above. The control group included a Cremophor EL (castor oil) based emulsion formulation, widely used for its potent solubilizing effect (Comelli F, Giagnoni G, Bettoni I, Colleoni M, 2008). The study group included the F2 tea formulation prepared at 0.62 mg CBD/mL, with both formulations providing 5mg/kg of CBD per body weight.

Setting [1] is: CME in Cremophor EL emulsion (1:1:18 EtOH:Cremophor:PBS), read-out: Serum concentration, Control group.
The mark [2] stands for this setting: po, F2 tea formulation, read-out: Serum Concentration, Experiment Group.

Like-named read-outs stand apart in the source and are kept apart here.

`CCCCCc1cc(O)c2c(c1)OC(C)(CCC=C(C)C)C=C2` (centres unmarked) [CBC, cannabichromene]: the concentration at 90 min runs as follows: under setting [1], 247 ± 48 ng/mL; under setting [2], 210 ± 72 ng/mL.

On to `C=C(C)[C@@H]1CCC(C)=C[C@H]1c1c(O)cc(CCCCC)cc1O` [CBD, cannabidiol], for which the concentration at 90 min reads like this: under setting [1], 3100 ± 970 ng/mL; under setting [2], 1500 ± 130 ng/mL.

`CCCCCc1cc(O)c2c(c1)OC(C)(C)c1ccc(C)cc1-2` [CBN, cannabinol]: the concentration at 90 min runs as follows: under setting [1], 100 ± 5 ng/mL; under setting [2], 125 ± 12 ng/mL.

As to `CCCCCc1cc(O)c2c(c1)OC(C)(C)[C@@H]1CCC(C)=C[C@@H]21` [THC, (—)-trans-Δ^9-tetrahydrocannabinol], the concentration at 90 min is 343 ± 90 ng/mL under setting [1] and 115 ± 15 ng/mL under setting [2].

For the origin of these results see patent US20220378699A1, “SELF-E[…] EXTRACT” (ISRAEL PLASTICS AND RUBBER CENTER LTD., priority 2019, published 2022).
